Source: patent US20020150540A1, “Allergen neutralization compositions containing aluminum ions” (priority 2001, published 2002)

The compounds below were run against T1, Der f 2 (Dermatophagoides farinae, UniProt Q00855) (assay: ELISA efficacy determination protocol, allergen neutralization versus Der f 2). Settings: 0.26 wt.% active ion in composition before sample preparation, pH 3.5, normalized to water control.
T1 construct: Add 1.0 ml of 20 ug/ml Dermatophagoides farinae mite extract; from tissue; host or cells: Dermatophagoides farinae mite extract (crude)
T1 sequence (Q00855 18-146): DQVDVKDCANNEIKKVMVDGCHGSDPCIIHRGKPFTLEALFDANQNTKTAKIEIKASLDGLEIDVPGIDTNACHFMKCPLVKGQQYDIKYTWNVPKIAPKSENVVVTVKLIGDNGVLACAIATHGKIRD
Type: biochemical
From the text: (§1) The efficacy of an allergen neutralization composition can be determined by the ELISA protocol. Enzyme-linked immunosorbent assay (“ELISA”) is a highly sensitive assay technique for detection and measurement of antigens or antibodies in solution. The assay uses enzyme-linked antigens or antibodies to amplify an antigen-antibody reaction. A single enzyme-linked antibody-antigen complex can convert orders of magnitude more of colorless substrate molecules into detectable colored products, thus considerably amplifying the original antigen-antibody reaction. The antigen or antibody is adsorbed onto the surface of the well of a microtiter plate, and all the relevant reactions take place in solution inside the well. While the following protocol will be easily understood by those skilled in the art, for a more detailed explanation please see Konishi, E. and Uehara, K. Enzyme-linked immunosorbent assay for quantifying antigens of Dermatophagoides farinae and D. pteronyssinus (Acari: Pyroglyphidae) in house dust samples, 1990, Entomologist Society of America, 27 (6), p. 993-998.
(§2) It is understood that those skilled in the art of allergen suppression will be aware of numerous variations to the protocol given below. For example, the monoclonal antibody may be substituted with a similar antibody, for example Der f 1 for Der f 2. But a standard, in this case water, is used and the results for the samples that contain active ingredients are normalized against the standard and the results reported as percentage of allergen remaining. That is, the amount of allergen that is not neutralized. Thus, the allergen neutralization results for similar, but not identical antibodies should be substantially the same when normalized to the standard. Both Der f 1 and Der f 2 were tested for various compositions. Der f 1 was chosen as the standard for the present Efficacy Determination Protocol.
(§3) At least two samples are prepared. One sample contains only distilled water and samples of one or more allergen neutralization compositions containing the allergen neutralization active, for example Al2(SO4)3, tannin, etc. The samples are all treated according to the same protocol, and the distilled water sample is used as the control. All samples are prepared as follows:
(§4) 1) Add 1.0 ml of 20 ug/ml Dermatophagoides farinae mite extract to 0.8 ml of the sample composition (either the allergen neutralization composition or water for the control). Mix well and let sit for 1 hour at room temp.
(§5) 2) Add 2.2 ml of 20% skim milk in Phosphate Buffer Saline (PBS).
(§6) 3) Mix well by vortexing and centrifuge at 12000 rpm (approx. 17000×g) for 1 hour.
(§7) 4) The supernatant is used for the ELISA protocol.
(§8) Each well of a microplate is coated at 4° C. overnight with 100 μl of Der f 2 monoclonal antibody (clone 15E11, from Asahi Breweries., AB-A-4) at a protein concentration of 2 μg per ml of Phosphate Buffer Saline (PBS), pH 7.4 containing 0.1% sodium azide. The monoclonal antibody is discarded and the plate is incubated with 100 μl of 1% BSA PBS containing 0.1% sodium azide for 1 hour. The plate is washed 3 times with PBS containing 0.05% Tween 20 (PBS-T). 100 μl of an allergen sample is added and incubated for 1 hour at 37° C.
(§9) Use 3×dilutions of a reference Dermatophagoides farinae crude extract (commercially available from LSL) to make the standard curve. The curve is made using 6.9 nanogram-mite extract equivalent/ml to 5 microgram-mite extract equivalent/ml. Wash plate with PBS-T for 3 times. 100 μl of Horse Radish Peroxidase (HRP) conjugated anti Der f 2 antibody (clone 13A4) is added at 40 ng/ml and the plate is incubated at 37° C. for 1 hour. The plate is then washed with PBS-T 3 times and then washed with water 3 times. The wells are incubated with 100 μl of o-phenylene diamine at 2.0 mg/ml of 0.1M phosphate buffer (pH 6.2) containing 0.03% H2O2. The enzyme reaction is terminated by adding 50 μl of 2 M H2SO4.
(§10) The absorbance of the sample is read at 490 nm with a cell length of 1 cm. […]
For `O=[N+]([O-])[O-].O=[N+]([O-])[O-].O=[N+]([O-])[O-].[Al+3]` [Al(NO3)3], the “% of Allergen Neutralized” value was 50%. In the case of “aluminum chlorohydrate [Al(OH)Cl2, reference compound]”, the “% of Allergen Neutralized” value is reported as 3%. In the case of `O=S(=O)([O-])[O-].O=S(=O)([O-])[O-].O=S(=O)([O-])[O-].[Al+3].[Al+3]` [Al2(SO4)3], the “% of Allergen Neutralized” value is reported as 6%. With `O=S(=O)([O-])[O-].O=S(=O)([O-])[O-].[Al+3].[K+]` [AlK(SO4)2] the “% of Allergen Neutralized” value was 23%. With `[Cl][Al]([Cl])[Cl]` [AlCl3] the “% of Allergen Neutralized” value was 17%. With `CC(O)C(=O)[O][Al]([O]C(=O)C(C)O)[O]C(=O)C(C)O` (stereo not shown) [Al Lactate, reference compound] the “% of Allergen Neutralized” value was 17%.

Each compound was assayed against T2, Der f 1 (Dermatophagoides farinae, UniProt P16311) (assay: ELISA efficacy determination protocol, allergen neutralization versus Der f 1). Settings: Versus Der f 1; 0.26 wt.% active ion in composition before sample preparation; pH 3.5; normalized to water control.
T2 construct: Add 1.0 ml of 20 ug/ml Dermatophagoides farinae mite extract; from tissue; host or cells: Dermatophagoides farinae mite extract (crude)
T2 sequence (P16311 99-321): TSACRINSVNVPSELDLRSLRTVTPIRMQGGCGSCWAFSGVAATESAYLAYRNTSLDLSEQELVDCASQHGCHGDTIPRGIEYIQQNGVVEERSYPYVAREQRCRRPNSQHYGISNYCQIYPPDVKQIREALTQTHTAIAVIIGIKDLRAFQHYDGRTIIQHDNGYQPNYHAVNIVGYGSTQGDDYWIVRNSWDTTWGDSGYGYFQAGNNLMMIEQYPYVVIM
Type: biochemical
From the text: as §1, §2, §3, §4, §5, §6, §7, §8, §9, §10
With `O=[N+]([O-])[O-].O=[N+]([O-])[O-].O=[N+]([O-])[O-].[Al+3]` [Al(NO3)3] the “% of Allergen Neutralized” value was 93%. In the case of “aluminum chlorohydrate [Al(OH)Cl2, reference compound]”, the “% of Allergen Neutralized” value is reported as 59%. `O=S(=O)([O-])[O-].O=S(=O)([O-])[O-].O=S(=O)([O-])[O-].[Al+3].[Al+3]` [Al2(SO4)3] was tested, and the “% of Allergen Neutralized” value was 66%. `O=S(=O)([O-])[O-].O=S(=O)([O-])[O-].[Al+3].[K+]` [AlK(SO4)2] was tested, and the “% of Allergen Neutralized” value was 65%. For `[Cl][Al]([Cl])[Cl]` [AlCl3], the “% of Allergen Neutralized” value was 85%. `CC(O)C(=O)[O][Al]([O]C(=O)C(C)O)[O]C(=O)C(C)O` (stereo not shown) [Al Lactate, reference compound] was tested, and the “% of Allergen Neutralized” value was 30%.

Same assay, conditions: statement in words on Table I
For “aluminum chlorohydrate [Al(OH)Cl2, reference compound]”, the “performance at deactivating dust mite allergens” value was “relatively poor performance”.
